Tests used:
[1] = in vivo; conditions: BALB/c, mouse, plasma, po, 50 mg/kg
Description: (§1) After 0.5, 1, 2, 4, and 6 hours from administration, blood of each mouse was collected from the retro-orbital sinus, and the concentration of compound 1 in plasma was measured.

[2] = Differential scanning calorimetry (DSC), phase transition on heating; conditions: when the temperature was increased (10° C./min)
Description: DSC measurement was performed under the following conditions.
Device: TA Instruments Q1000
Sample Container: made of aluminum
Temperature Increase Rate: 10° C./min
Atmospheric Gas: Nitrogen
Nitrogen Gas Flow: 50 ml/min

[3] = Oral absorbability: plasma concentration of compound 1 after oral administration to mice; conditions: BALB/c mice, 50 mg/kg, suspension in 0.5% HPMC aqueous solution, plasma sampled 0.5-6 hours
Description: as §1

| SMILES | AUC [1] [µM·h] | peak that suggests a phase transition in DSC measurement [2] | AUC [3] [µM·h] |
| --- | --- | --- | --- |
| C=CC(=O)N1CC[C@H](n2nc(C#Cc3cc(OC)cc(OC)c3)c3c(N)ncnc32)C1 [Crystal I, (S)-1-(3-(4-amino-3-((3,5-dimethoxyphenyl)ethynyl)-1H-pyrazolo[3,4-d]pyrimidin-1-yl)-1-pyrrolidinyl)-2-propen-1-one] | 9.82 | did not exhibit a peak that suggests a phase transition | – |
| C=CC(=O)N1CC[C@H](n2nc(C#Cc3cc(OC)cc(OC)c3)c3c(N)ncnc32)C1 [Crystal II, (S)-1-(3-(4-amino-3-((3,5-dimethoxyphenyl)ethynyl)-1H-pyrazolo[3,4-d]pyrimidin-1-yl)-1-pyrrolidinyl)-2-propen-1-one] | – | did not exhibit a peak that suggests a phase transition | 4.99 |

— patent US10434103B2, “Crystal of 3,5-disubstituted benzene alkynyl compound” (TAIHO PHARMACEUTICAL CO., LTD., priority 2015, dated 2019)
